According to US20240262819A1, “NOVEL COMPOUNDS HAVING INHIBITORY ACTIVITY AGAINST GLUCOSYLCERAMIDE SYNTHASE OR PHARMACEUTICALLY ACCEPTABLE SALT THEREOF, PROCESSES FOR PREPARING THE SAME, AND PHARMACEUTICAL COMPOSITIONS COMPRISING THE SAME” (YUHAN CORPORATION, priority 2021, published 2024):
Where two headings read alike, the source gives them in different places.

Legend:
[1] = test system: GM1 production in Jurkat cells; assay: cells; format: cell-based
[2] = target: glucosylceramide synthase (GCS) (Homo sapiens (Human), UniProt Q16739); assay: Evaluation of inhibitory activities against GCS (A549 cell lysate, NBD C6-ceramide, HPLC); format: biochemical
Sequence of glucosylceramide synthase (GCS) (Q16739 whole entry): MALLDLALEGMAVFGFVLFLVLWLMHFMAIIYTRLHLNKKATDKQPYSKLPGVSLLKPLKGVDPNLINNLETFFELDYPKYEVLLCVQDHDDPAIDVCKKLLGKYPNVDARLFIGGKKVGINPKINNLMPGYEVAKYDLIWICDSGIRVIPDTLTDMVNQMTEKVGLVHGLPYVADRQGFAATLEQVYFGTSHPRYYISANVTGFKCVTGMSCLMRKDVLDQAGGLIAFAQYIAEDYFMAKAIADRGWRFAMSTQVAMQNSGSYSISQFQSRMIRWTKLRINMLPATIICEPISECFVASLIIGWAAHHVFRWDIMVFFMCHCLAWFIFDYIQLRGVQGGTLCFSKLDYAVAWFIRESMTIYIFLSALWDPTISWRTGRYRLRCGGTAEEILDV
Summary of the method: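 GCS activity in A549 cell lysate (50 mM HEPES, pH 7.3) with NBD C6-ceramide, reacted 90 min at 37 °C. Lipids were chloroform/methanol-extracted and separated by normal-phase HPLC with fluorescence detection (ex 470/em 530 nm). GlcCer fraction of peak area was normalized between DMSO and ibiglustat, and IC50 obtained by curve fitting.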

[3] = % GCS activity, A549 cell lysate, 37° C. for 90 minutes, read-out: IC50

Row | SMILES | IC50 ([1]; Homo sapiens, Jurkat, 72 h) [nM] | IC50 [2] [nM] | IC50 ([1]; read-out: IC50) [nM] | IC50 [2, 3] [nM]
1 | CCc1ccc(-c2cc3c(cc2C)[C@H](NC(=O)O[C@@H]2CN4CCC2CC4)C(C)(C)C3)cc1 [Example 115, (S)-quinuclidin-3-yl((R)-5-(4-ethylphenyl)-2,2,6-trimethyl-2,3-dihydro-1H-inden-1-yl)carbamate] | 5.09 | 0.43 | – | –
2 | CC(C)Oc1c(Cl)cc(-c2ccc3c(c2)CC(C)(C)[C@H]3NC(=O)O[C@@H]2CN3CCC2CC3)cc1Cl [Example 40, (S)-quinuclidin-3-yl((R)-5-(3,5-dichloro-4-isopropoxyphenyl)-2,2-dimethyl-2,3-dihydro-1H-inden-1-yl)carbamate] | 1.6 | 3.21 | – | –
3 | CC(C)Oc1cc(Cl)cc(-c2ccc3c(c2)CC(C)(C)[C@H]3NC(=O)O[C@@H]2CN3CCC2CC3)c1 [Example 54, (S)-quinuclidin-3-yl((R)-5-(3-chloro-5-isopropoxyphenyl)-2,2-dimethyl-2,3-dihydro-1H-inden-1-yl)carbamate] | 8.6 | 0.59 | – | –
4 | CC(C)Cc1cccc(-c2cc3c(cc2F)[C@H](NC(=O)O[C@@H]2CN4CCC2CC4)C(C)(C)CC3)c1 [Example 189, (S)-quinuclidin-3-yl((R)-7-fluoro-6-(3-isobutylphenyl)-2,2-dimethyl-1,2,3,4-tetrahydronaphthalen-1-yl)carbamate] | 6 | 1.04 | – | –
5 | Cc1cc2c(cc1-c1ccc(OC(C)C)c(Cl)c1)CC(C)(C)[C@H]2NC(=O)O[C@@H]1CN2CCC1CC2 [Example 125, (S)-quinuclidin-3-yl((R)-5-(3-chloro-4-isopropoxyphenyl)-2,2,6-trimethyl-2,3-dihydro-1H-inden-1-yl)carbamate] | 10.8 | 2.17 | – | –
6 | COc1ccc(-c2ccc3c(c2)CCC(C)(C)[C@H]3NC(=O)O[C@@H]2CN3CCC2CC3)cc1 [Example 166, (S)-quinuclidin-3-yl((R)-6-(4-methoxyphenyl)-2,2-dimethyl-1,2,3,4-tetrahydronaphthalen-1-yl)carbamate] | 5.9 | 0.69 | – | –
7 | CCCCOc1c(C)cc(-c2ccc3c(c2)CCC(C)(C)[C@H]3NC(=O)O[C@@H]2CN3CCC2CC3)cc1C [Example 152, (S)-quinuclidin-3-yl((R)-6-(4-butoxy-3,5-dimethylphenyl)-2,2-dimethyl-1,2,3,4-tetrahydronaphthalen-1-yl)carbamate] | 8.3 | 1.65 | – | –
8 | CC(C)Oc1cc(Cl)cc(-c2cc3c(cc2F)[C@H](NC(=O)O[C@@H]2CN4CCC2CC4)C(C)(C)C3)c1 [Example 113, (S)-quinuclidin-3-yl((R)-5-(3-chloro-5-isopropoxyphenyl)-6-fluoro-2,2-dimethyl-2,3-dihydro-1H-inden-1-yl)carbamate] | 11.5 | 0.62 | – | –
9 | Cc1cc(-c2cc3c(cc2F)[C@H](NC(=O)O[C@@H]2CN4CCC2CC4)C(C)(C)C3)ccc1OC(F)F [Example 107, (S)-quinuclidin-3-yl((R)-5-(4-(difluoromethoxy)-3-methylphenyl)-6-fluoro-2,2-dimethyl-2,3-dihydro-1H-inden-1-yl)carbamate] | 16 | 0.93 | – | –
10 | CC1(C)Cc2cc(-c3ccc(OCC(F)(F)F)cc3Cl)c(F)cc2[C@@H]1NC(=O)O[C@@H]1CN2CCC1CC2 [Example 114, (S)-quinuclidin-3-yl((R)-5-(2-chloro-4-(2,2,2-trifluoroethoxy)phenyl)-6-fluoro-2,2-dimethyl-2,3-dihydro-1H-inden-1-yl)carbamate] | 1.7 | 0.2 | – | –
11 | CCCOc1ccc(-c2cc3c(cc2F)[C@H](NC(=O)O[C@@H]2CN4CCC2CC4)C(C)(C)C3)cc1C [Example 106, (S)-quinuclidin-3-yl((R)-6-fluoro-2,2-dimethyl-5-(3-methyl-4-propoxyphenyl)-2,3-dihydro-1H-inden-1-yl)carbamate] | 2.3 | 0.61 | – | –
12 | CCCCc1ccc(-c2cc3c(cc2F)[C@H](NC(=O)O[C@@H]2CN4CCC2CC4)C(C)(C)CC3)cc1 [Example 173, (S)-quinuclidin-3-yl((R)-6-(4-butylphenyl)-7-fluoro-2,2-dimethyl-1,2,3,4-tetrahydronaphthalen-1-yl)carbamate] | 0.3 | 0.24 | – | –
13 | CCCOc1ccc(-c2ccc3c(c2)CC(C)(C)[C@H]3NC(=O)O[C@@H]2CN3CCC2CC3)cc1C [Example 47, (S)-quinuclidin-3-yl((R)-2,2-dimethyl-5-(3-methyl-4-propoxyphenyl)-2,3-dihydro-1H-inden-1-yl) carbamate] | – | – | 7.7 | 1.89
14 | CC(C)COc1cc(Cl)cc(-c2cc3c(cc2F)[C@H](NC(=O)O[C@@H]2CN4CCC2CC4)C(C)(C)C3)c1 [Example 112, (S)-quinuclidin-3-yl((R)-5-(3-chloro-5-isobutoxyphenyl)-6-fluoro-2,2-dimethyl-2,3-dihydro-1H-inden-1-yl)carbamate] | 10.6 | 1.03 | – | –
15 | CCCOc1cccc(-c2ccc3c(c2)CCC(C)(C)[C@H]3NC(=O)O[C@@H]2CN3CCC2CC3)c1 [Example 159, (S)-quinuclidin-3-yl((R)-2,2-dimethyl-6-(3-propoxyphenyl)-1,2,3,4-tetrahydronaphthalen-1-yl)carbamate] | 1.7 | 4.28 | – | –
16 | Cc1cc(-c2cc3c(cc2F)[C@H](NC(=O)O[C@@H]2CN4CCC2CC4)C(C)(C)CC3)cc(C)c1OC(C)C [Example 182, (S)-quinuclidin-3-yl((R)-7-fluoro-6-(4-isopropoxy-3,5-dimethylphenyl)-2,2-dimethyl-1,2,3,4-tetrahydronaphthalen-1-yl)carbamate] | 12.9 | 3.1 | – | –
17 | CCCOc1cccc(-c2cc3c(cc2F)[C@H](NC(=O)O[C@@H]2CN4CCC2CC4)C(C)(C)CC3)c1 [Example 192, (S)-quinuclidin-3-yl((R)-7-fluoro-2,2-dimethyl-6-(3-propoxyphenyl)-1,2,3,4-tetrahydronaphthalen-1-yl) carbamate] | – | – | 2.9 | 0.53
18 | CCCc1ccc(-c2cc3c(cc2C)[C@H](NC(=O)O[C@@H]2CN4CCC2CC4)C(C)(C)C3)cc1 [Example 116, (S)-quinuclidin-3-yl((R)-2,2,6-trimethyl-5-(4-propylphenyl)-2,3-dihydro-1H-inden-1-yl)carbamate] | 3.82 | 0.31 | – | –
19 | CC1(C)Cc2cc(-c3ccc(OCC4CC4)c(Cl)c3)c(F)cc2[C@@H]1NC(=O)O[C@@H]1CN2CCC1CC2 [Example 99, (S)-quinuclidin-3-yl((R)-5-(3-chloro-4-(cyclopropylmethoxy)phenyl)-6-fluoro-2,2-dimethyl-2,3-dihydro-1H-inden-1-yl)carbamate] | 8.84 | 0.67 | – | –
20 | CC(C)Oc1ccc(-c2ccc3c(c2)CCC(C)(C)[C@H]3NC(=O)O[C@@H]2CN3CCC2CC3)cc1 [Example 167, (S)-quinuclidin-3-yl((R)-6-(4-isopropoxyphenyl)-2,2-dimethyl-1,2,3,4-tetrahydronaphthalen-1-yl)carbamate] | 3.16 | 0.37 | – | –
21 | CCc1ccc(-c2ccc3c(c2)CCC(C)(C)[C@H]3NC(=O)O[C@@H]2CN3CCC2CC3)cc1F [Example 169, (S)-quinuclidin-3-yl((R)-6-(4-ethyl-3-fluorophenyl)-2,2-dimethyl-1,2,3,4-tetrahydronaphthalen-1-yl)carbamate] | 1.7 | 0.14 | – | –
22 | CC(C)COc1cc(Cl)cc(-c2ccc3c(c2)CC(C)(C)[C@H]3NC(=O)O[C@@H]2CN3CCC2CC3)c1 [Example 53, (S)-quinuclidin-3-yl((R)-5-(3-chloro-5-isobutoxyphenyl)-2,2-dimethyl-2,3-dihydro-1H-inden-1-yl)carbamate] | 4.1 | 0.67 | – | –
23 | CCc1ccc(-c2ccc3c(c2)CCC(C)(C)[C@H]3NC(=O)O[C@@H]2CN3CCC2CC3)cc1 [Example 139, (S)-quinuclidin-3-yl((R)-6-(4-ethylphenyl)-2,2-dimethyl-1,2,3,4-tetrahydronaphthalen-1-yl)carbamate] | 3.01 | 0.26 | – | –
24 | CCOc1cc2c(cc1-c1ccc(OC(C)C)cc1)CC(C)(C)[C@H]2NC(=O)O[C@@H]1CN2CCC1CC2 [Example 134, (S)-quinuclidin-3-yl((R)-6-ethoxy-5-(4-isopropoxyphenyl)-2,2-dimethyl-2,3-dihydro-1H-inden-1-yl)carbamate] | 3.8 | 0.71 | – | –
25 | CC(C)COc1cc(F)cc(-c2ccc3c(c2)CC(C)(C)[C@H]3NC(=O)O[C@@H]2CN3CCC2CC3)c1 [Example 50, (S)-quinuclidin-3-yl((R)-5-(3-fluoro-5-isobutoxyphenyl)-2,2-dimethyl-2,3-dihydro-1H-inden-1-yl)carbamate] | 2.2 | 0.44 | – | –
26 | CCOc1ccc(-c2ccc3c(c2)CCC(C)(C)[C@H]3NC(=O)O[C@@H]2CN3CCC2CC3)cc1 [Example 143, (S)-quinuclidin-3-yl((R)-6-(4-ethoxyphenyl)-2,2-dimethyl-1,2,3,4-tetrahydronaphthalen-1-yl) carbamate] | – | – | 4.2 | 0.33
27 | CCCc1cccc(-c2cc3c(cc2F)[C@H](NC(=O)O[C@@H]2CN4CCC2CC4)C(C)(C)C3)c1 [Example 72, (S)-quinuclidin-3-yl((R)-6-fluoro-2,2-dimethyl-5-(3-propylphenyl)-2,3-dihydro-1H-inden-1-yl)carbamate] | 15.9 | 1.19 | – | –
28 | CCOc1cc2c(cc1-c1ccc(C(C)C)cc1)CC(C)(C)[C@H]2NC(=O)O[C@@H]1CN2CCC1CC2 [Example 129, (S)-quinuclidin-3-yl((R)-6-ethoxy-5-(4-isopropylphenyl)-2,2-dimethyl-2,3-dihydro-1H-inden-1-yl)carbamate] | 8.11 | 2.31 | – | –
29 | CC1(C)Cc2cc(-c3cc(F)cc(OCC(F)(F)F)c3)ccc2[C@@H]1NC(=O)O[C@@H]1CN2CCC1CC2 [Example 51, (S)-quinuclidin-3-yl((R)-5-(3-fluoro-5-(2,2,2-trifluoroethoxy)phenyl)-2,2-dimethyl-2,3-dihydro-1H-inden-1-yl) carbamate] | – | – | 9.1 | 0.65
